Test [1] has as its system SMN2 mRNA. Kind of test: Gene panel canonical junction qPCR assay, SMN2 CJ mRNA decrease. Type of test: cell-based, human. Conditions: Homo sapiens, decrease in CJ mRNA levels, read-out: SMN2 IC50. How it is done: (§1) Compounds described herein were used to modulate RNA transcript abundance in cells. The expression of a target mRNA was measured by detecting the formation of an exon-exon junction in the canonical transcript (CJ). A compound mediated exon-inclusion event was detected by observing an increase in formation of a new junction with an alternative exon (AJ). Real-time qPCR assays were used to detect these splicing switches and interrogate the potency of various compounds towards different target genes. A high-throughput real time quantitative PCR (RT-qPCR) assay was developed to measure these two isoforms of the mRNA (CJ and AJ) for exemplary genes, such as HTT, SMN2, and MYB, together with a control housekeeping gene, GAPDH or GUSB or PPIA, used for normalization. Briefly, the A673 or K562 cell line was treated with various compounds described herein (e.g., compounds of Formula (I), (I), or (III)). After treatment, the levels of the HTT, MYB, or SMN2 mRNA targets were determined from each sample of cell lysate by cDNA synthesis followed by qPCR.
(§2) The data analysis was performed by first determining the ΔCt vs the housekeeper gene. This ΔCt was then normalized against the DMSO control (ΔΔCt) and converted to RQ (relative quantification) using the 2^(−ΔΔCt) equation. The RQ were then converted to a percentage response by arbitrarily setting an assay window of 3.5 and 4.0 ΔCt for HTT-CJ and MYB-CJ respectively and an assay window of 9 and 3 ΔCt for HTT-AJ and MYB-AJ in 96 well format (50,000 K562 cells/well and 15,000 A673 cells per well) and an assay window of 3 and 4 ΔCt for HTT-CJ and MYB-CJ respectively and an assay window of 5 and 3 ΔCt for HTT-AJ and MYB-AJ respectively in 384 well format (8,000 K562 cells/well example). […] The percentage response was then fitted to the 4 parametric logistic equation to evaluate the concentration dependence of compound treatment. The increase in AJ mRNA is reported as AC50 (compound concentration having […] in AJ increase) while the decrease in CJ mRNA levels is reported as IC50 (compound concentration having 50) response in CJ decrease).
(§3) Additional studies were carried out for a larger panel of genes using the protocol provided above. The junction between flanking upstream and downstream exons was used to design canonical junction qPCR assays. At least one of the forward primer, reverse primer or the CY5-labeled 5′ nuclease probe (with 3′ quencher such as ZEN/Iowa Black FQ) was designed to overlap with the exon junction to capture the CJ mRNA transcript. BLAST was used to confirm the specificity of the probeset and parameters such as melting temperature, GC content, amplicon size, and primer dimer formation are considered during their design. Data for the decrease in CJ mRNA levels for four exemplary genes (HTT, SMN2, MYB, and Target C) analyzed in this panel are reported as IC50 (compound concentration having […] in CJ decrease).
(§4) A summary of the results from the panel is illustrated in Tables 5A and 51B, wherein “A” represents an IC50 of less than 100 nM; “B” represents an IC50 of between 100 nM and 1 μM; and “C” represents an IC50 of between 1 μM and 10 μM; and “D” represents an IC50 of greater than 10 μM.

In test [2] the test system is HTT mRNA. Description: Gene panel canonical junction qPCR assay, HTT CJ mRNA decrease. To be noted: Homo sapiens, decrease in CJ mRNA levels, read-out: HTT IC50. Type of test: cell-based, human. How it is done:
as §1, §2, §3, §4

The subject of test [3] is Target C mRNA. Description: Gene panel canonical junction qPCR assay, Target C CJ mRNA decrease. Type of test: cell-based. Conditions: Homo sapiens, decrease in CJ mRNA levels, read-out: Target C IC50. The method, then: as §1, §2, §3, §4
Test [4] has as its system MYB mRNA. Kind of test: Gene panel canonical junction qPCR assay, MYB CJ mRNA decrease. Type of test: cell-based, human. To be noted: Homo sapiens, decrease in CJ mRNA levels, read-out: MYB IC50. How it is done:
as §1, §2, §3, §4

Molecules are shown by their SMILES. Where only a bound is given, the exact number is not on record here.

Take `Cc1cn2cc(NC(=O)c3sc(C4CCNCC4)c(Cl)c3Cl)cc(F)c2n1` [Compound 648]: the IC50 in test [1], in test [2], in test [3] and in test [4] was over 10 µM in each case.
On to `CC1=NC2C(F)=CC(NC(=O)c3sc(C4CCNCC4)cc3F)=CC2O1` (centres unmarked) [Compound 657], for which the half-maximal inhibitory concentration (IC50) in test [1], in test [2], in test [3] and in test [4] was over 10 µM each time.
For the molecule `CC1=NC2C(F)=CC(NC(=O)c3sc(C4CCNCC4)cc3F)=CC2S1` (centres unmarked) [Compound 658], the IC50 in test [1], in test [2], in test [3] and in test [4] was over 10 µM throughout.
For `Cc1cn2cc(NC(=O)c3sc(N4CCNC(C)C4)c(Cl)c3Cl)cc(F)c2n1` (centres unmarked) [Compound 659], the IC50 in test [1] fell in the range of 1 to 10 µM; in test [2] it was 0.1 to 1 µM; in test [3], 1 to 10 µM; in test [4], 0.1 to 1 µM.
Turning to `Cc1cn2cc(NC(=O)c3cc(Cl)c(N4CCNC(C)C4)s3)cc(F)c2n1` (centres unmarked) [Compound 660], the IC50 was 1 to 10 µM in test [1], 0.1 to 1 µM in test [2], 1 to 10 µM in test [3] and under 0.1 µM in test [4].
Regarding `COc1cc(N2CCNCC2=O)sc1C(=O)Nc1cc(F)c2nc(C)cn2c1` [Compound 662], the IC50 in test [1], in test [2], in test [3] and in test [4] was over 10 µM throughout.
Consider `Cc1cn2cc(NC(=O)c3sc(C4CCNCC4)cc3Cl)cc(F)c2n1` [Compound 663], for which the IC50 is over 10 µM in test [1], 0.1 to 1 µM in test [2], 1 to 10 µM in test [3] and 0.1 to 1 µM in test [4].
For the molecule `Cc1cn2nc(NC(=O)c3sc(C4CCNCC4)cc3F)nc2c(C)n1` [Compound 665], the IC50 was 1 to 10 µM in test [1], under 0.1 µM in test [2], 0.1 to 1 µM in test [3] and under 0.1 µM in test [4].

Source of the values: patent US20240409536A1, “COMPOUNDS AND METHODS FOR MODULATING SPLICING” (REMIX THERAPEUTICS INC., priority 2021, published 2024).
